Assay results: patent publication US7803801B2, “Aminopyridine compounds having Syk inhibitory activity” (Japan Tobacco, Inc., priority 2005, dated 2010)
Where a name gives a salt, the structure may show the parent alone.

What follows are molecules tested against GST-Syk Full Protein (human) (Homo sapiens, UniProt P43405) (assay: Syk kinase inhibition test (HTRF method)). Settings: HTRF, 100 μM ATP, 30 min room temperature, average; read-out: sykHTRF ave IC50.
Assay type: biochemical
Method: Syk Kinase Inhibition Test (HTRF Method)
After the compounds were serially diluted with dimethylsulfoxide (DMSO), 10 μL of those 10-fold diluted with kinase buffer (20 mM HEPES pH 7.0, 10 mM MgCl2, 50 mM NaCl, 1 mM 2-ME, 0.05% BSA) was added to opti-plate HTRF-96 (Packard) (final DMSO concentration: 2%). 20 μL of a substrate solution (kinase buffer as mentioned above containing Syk Specific-Peptide Substrate Biot-EDPDYEWPSA-NH2 (Peptide Laboratory) 625 nM, 250 μM ATP (SIGMA) was added (final substrate concentration 250 nM, 100 μM ATP), and further 20 μL of an enzyme solution (kinase buffer as mentioned above containing GST-Syk Full Protein (human) 16 nM) (final concentration 6.4 nM) was added and the mixture was immediately stirred with a plate shaker to start enzyme reaction. After reacted at room temperature (20 to 25° C.) for 30 minutes, the enzyme reaction was terminated by adding 100 μL/well of a buffer for terminating and detecting the reaction (30 mM HEPES pH 7.0, 150 mM KF, 0.15% BSA, 0.075% Tween-20, 75 mM EDTA) containing HTRF reagent (5 μg/ml XL665-Streptavidin (CIS bio), 170 ng/ml Eu(K)-anti-PhosphoTyrosin, PT-66 (CIS bio)) (final concentration 20 mM HEPES pH 7.0, 100 mM KF, 0.1% BSA, 0.05% Tween-20, 50 mM EDTA). After allowed to stand still at room temperature for 1 hour, inhibitory effect of a compound against Syk kinase enzymatic activity was evaluated by measuring 665/620 fluorescence ratio to excitation light at 337 nm by ARVO (Wallac).

`Cc1ccnc(Nc2cccc(-c3cnc(CCc4cccc(C(=O)N5CCC(O)CC5)c4)s3)n2)c1` [Compound A-281] was tested. Which IC50 did it give?
Its IC50 is 100 to 1000 nM.

`COC(=O)c1ccc(CCc2ncc(-c3cccc(Nc4cc(C)ccn4)n3)s2)cc1` [Compound A-149] was tested. Which IC50 did it give?
The IC50 was over 1000 nM.

Same assay, conditions: Tables 1-x, compounds A; read-out: sykHTRF ave IC50

Which IC50 does the source give for `Cc1ccnc(Nc2cccc(-c3cnc(N4CCC(NC(=O)C5CCOCC5)CC4)s3)n2)c1` [Compound A-661] here?
The IC50 was 100 to 1000 nM.

`Cc1ccnc(Nc2cccc(-c3cnc(N(C)CCCCCC(=O)O)s3)n2)c1` [Compound A-645, 6-(N-methyl-N-{5-[6-(4-methylpyridin-2-ylamino)pyridin-2-yl]thiazol-2-yl}amino)hexanoic acid dihydrochloride] was tested. Which IC50 did it give?
The IC50 was under 100 nM.

With `Cc1ccnc(Nc2cccc(-c3cnc(N(C)c4ccc(/C=C/C(=O)O)cc4)s3)n2)c1` [Compound A-618] as the molecule, how does the IC50 read?
The IC50 was 100 to 1000 nM.

How did the IC50 turn out when `Cc1ccnc(Nc2cccc(-c3cnc(NCCCCC(=O)O)s3)n2)c1` [Compound A-644, 5-{5-[6-(4-methylpyridin-2-ylamino)pyridin-2-yl]thiazol-2-ylamino}pentanoic acid] was run?
The IC50 was under 100 nM.

For `Cc1ccnc(Nc2cccc(-c3cnc(N4CCC(C(F)C(=O)O)CC4)s3)n2)c1` (stereo not shown) [Compound A-684, fluoro-(1-{5-[6-(4-methylpyridin-2-ylamino)pyridin-2-yl]thiazol-2-yl}piperidin-4-yl)acetic acid], which IC50 is on record?
Its IC50 is under 100 nM.

Which IC50 does the source give for `Cc1ccnc(Nc2cccc(-c3cnc(N(CCCCC(=O)O)C(C)C)s3)n2)c1` [Compound A-643, 5-(N-isopropyl-N-{5-[6-(4-methylpyridin-2-ylamino)pyridin-2-yl]thiazol-2-yl}amino)pentanoic acid] here?
Its IC50 is under 100 nM.

How did the IC50 turn out when `O=C(O)CC1CCN(c2ncc(-c3cccc(Nc4cc(CCO)ccn4)n3)s2)CC1` [Compound A-681, [1-(5-{6-[4-(2-hydroxyethyl)pyridin-2-ylamino]pyridin-2-yl}thiazol-2-yl)piperidin-4-yl]acetic acid dihydrochloride] was run?
The IC50 was under 100 nM.

`COC(=O)N(CC(=O)O)Cc1ncc(-c2cccc(Nc3cc(C)ccn3)n2)s1` [Compound A-583] was tested. Which IC50 did it give?
Its IC50 is 100 to 1000 nM.

`Cc1ccnc(Nc2cccc(-c3cnc(CN4CCC(C(N)=O)CC4)s3)n2)c1` [Compound A-685, 1-{5-[6-(4-methylpyridin-2-ylamino)pyridin-2-yl]thiazol-2-ylmethyl}piperidine-4-carboxamide] was tested. Which IC50 did it give?
The IC50 was under 100 nM.

How did the IC50 turn out when `CN(C[C@H]1CC[C@H](C(=O)O)CC1)c1ncc(-c2cccc(Nc3ccccn3)n2)s1` [Compound A-699, trans-4-[(N-methyl-N-{5-[6-(pyridin-2-ylamino)pyridin-2-yl]thiazol-2-yl}amino)methyl]cyclohexanecarboxylic acid dihydrochloride] was run?
The IC50 was under 100 nM.

How did the IC50 turn out when `O=C(O)Cc1ccnc(Nc2cccc(-c3cnc(N4CC[C@@H](O)C4)s3)n2)c1` [Compound A-557] was run?
Its IC50 is 100 to 1000 nM.

With `CNC(=O)C1CCN(Cc2ncc(-c3cccc(Nc4cc(C)ccn4)n3)s2)CC1` [Compound A-686] as the molecule, how does the IC50 read?
The IC50 was 100 to 1000 nM.

For `CC(C)(C(=O)O)C1CCN(c2ncc(-c3cccc(Nc4ccccn4)n3)s2)CC1` [Compound A-714, 2-methyl-2-(1-{5-[6-(pyridin-2-ylamino)pyridin-2-yl]thiazol-2-yl}piperidin-4-yl)propionic acid], which IC50 is on record?
Its IC50 is under 100 nM.

How did the IC50 turn out when `CN(CCC/C=C/C(=O)O)c1ncc(-c2cccc(Nc3cc(C(F)(F)F)ccn3)n2)s1` [Compound A-657, (E)-6-(N-methyl-N-{5-[6-(4-trifluoromethylpyridin-2-ylamino)pyridin-2-yl]thiazol-2-yl}amino)hex-2-enoic acid dihydrochloride] was run?
Its IC50 is under 100 nM.

For `Cc1ccnc(Nc2cccc(-c3cnc([C@@H](N)Cc4ccc(O)cc4)s3)n2)c1` [Compound A-389], which IC50 is on record?
The IC50 was 100 to 1000 nM.

With `Cc1ccnc(Nc2cccc(-c3cnc(N(Cc4ccccc4)[C@H]4CC[C@H](CC(=O)O)CC4)s3)n2)c1` [Compound A-624, [trans-4-(N-benzyl-N-{5-[6-(4-methylpyridin-2-ylamino)pyridin-2-yl]thiazol-2-yl}amino)cyclohexyl]acetic acid] as the molecule, how does the IC50 read?
Its IC50 is under 100 nM.

How did the IC50 turn out when `Cc1ccnc(Nc2cccc(-c3cnc(N4CCC(CC(C)(C)O)CC4)s3)n2)c1` [Compound A-670] was run?
The IC50 was 100 to 1000 nM.
